Like-named read-outs stand apart in the source and are kept apart here.
Tests used:
[1] = test system: human gingival fibroblasts; experiment: Cell viability, neutral red assay, fibroblasts; format: cell-based; details: 50 μg/mL MB, no light, 0 and 24 hours
Protocol: (§1) In this study, the viability of human gingival fibroblasts and osteoblasts in vitro was assessed after exposure to methylene blue (MB) and red light with parameters similar to those that may be applied in a clinical setting. […] Both cell types were sensitized with 50 μg/mL methylene blue followed by exposure to red light at 665 nm for 5 minutes with an irradiance of 10, 20, and 40 mW/cm^2. The power densities were 10, 20, and 40 mW/cm^2, corresponding with energy fluencies of 3, 6, and 12 J/cm^2, respectively. In previous studies, light with a power density of 100 mW/cm^2 was used for killing endodontic pathogens within infected root canal specimens in vitro. A portion of that light propagates in dentin and escapes from the tooth. The power density of light escaping from the root specimen ranges from 5 to 10 mW/cm^2 depending on the morphology of the root canal system. In the present study, up to fourfold greater power densities were used.
After photodynamic therapy (PDT), cell viability and mitochondrial activity were evaluated by the neutral red and MTT assay, respectively. The assessment of PDT-induced apoptosis was investigated by western blot analysis using cleaved poly(ADPribose) polymerase-specific antibodies. […] Twenty-four hours after treatment, cultures were stopped and analyzed by western blot using cleaved PARP− and b-actin-specific antibodies.

[2] = test system: Enterococcus faecalis biofilms; experiment: PDT on E. faecalis biofilms in experimentally infected root canals of extracted teeth; format: cell-based; details: MB 25 μg/ml in combination with red light 222 J/cm^2
Protocol: The effects of PDT were investigated on endodontic pathogens in planktonic phase as well as on Enterococcus faecalis biofilms in experimentally infected root canals of extracted teeth. Strains of Porphyromonas gingivalis (ATCC 33277), P. intermedia (ATCC 25611), Fusobacterium nucleatum nucleatum (ATCC 25586), Peptostreptocococcus micros (ATCC 33270), Porphyromonas endodontalis (ATCC 35406), and E. faecalis (ATCC 29212) were sensitized with methylene blue (MB) (25 μg/ml) for 5 minutes followed by exposure to res light of 665 nm with an energy fluence of 30 J/cm^2. […] In Table 1, Surviving species are expressed as percentage-of-controls receiving neither methylene blue nor light. Each value is the mean of values obtained from 2 to 4 experiments (±standard error). […] Light was uniformly delivered at 360 degrees in the root canal system with a flexible optical fiber with cylindrical diffusers and a diameter of 500 μm.

[3] = test system: multispecies root canal biofilms comprising Actinomyces israelii, Fusobacterium nucleatum subspecies nucleatum, Porphyromonas gingivalis, and Prevotella …; experiment: PDT on multispecies root canal biofilms in extracted human teeth, CFU assay; format: cell-based; details: MB 25 μg/mL 10 minutes, red light 665 nm 30 J/cm^2
Protocol: The photodynamic effects of methylene blue (MB) on multispecies root canal biofilms comprising Actinomyces israelii, Fusobacterium nucleatum subspecies nucleatum, Porphyromonas gingivalis, and Prevotella intermedia in experimentally infected root canals of extracted human teeth were investigated in vitro.
Root canal systems were incubated with MB (25 μg/mL) for 10 minutes followed by exposure to red light at 665 nm with an energy fluence of 30 J/cm^2. Light was delivered from a diode laser via a 250-μm diameter polymethyl methacrylate optical fiber that uniformly distributed light over 360 degrees (FIG. 2). […] In FIG. 5, each bar is the mean Logic, CFU levels (+standard error).

[4] = test system: Fusobacterium nucleatum nucleatum (ATCC 25586); experiment: PDT on endodontic pathogens in planktonic phase: F. nuc. nuc.; format: cell-based; details: methylene blue 25 μg/ml, 5 minutes, mean ± standard error; for Surviving species, PDT: red light 665 nm 30 J/cm^2
Protocol: (§2) The effects of PDT were investigated on endodontic pathogens in planktonic phase as well as on Enterococcus faecalis biofilms in experimentally infected root canals of extracted teeth. Strains of Porphyromonas gingivalis (ATCC 33277), P. intermedia (ATCC 25611), Fusobacterium nucleatum nucleatum (ATCC 25586), Peptostreptocococcus micros (ATCC 33270), Porphyromonas endodontalis (ATCC 35406), and E. faecalis (ATCC 29212) were sensitized with methylene blue (MB) (25 μg/ml) for 5 minutes followed by exposure to res light of 665 nm with an energy fluence of 30 J/cm^2. […] In Table 1, Surviving species are expressed as percentage-of-controls receiving neither methylene blue nor light. Each value is the mean of values obtained from 2 to 4 experiments (±standard error). The same concentration of MB in combination with red light (222 J/cm^2) was able to eliminate 97% of E. faecalis biofilm bacteria in root canals. Light was uniformly delivered at 360 degrees in the root canal system with a flexible optical fiber with cylindrical diffusers and a diameter of 500 μm. Table 1 presents the survival of endodontic bacteria after their incubation only with methylene blue (25 μg/ml) or methylene blue (25 μg/ml) and red light (30 J/cm^2): […]

[5] = test system: Porphyromonas gingivalis (ATCC 33277); experiment: PDT on endodontic pathogens in planktonic phase: P. gingivalis; format: cell-based; details: methylene blue 25 μg/ml, 5 minutes; for Surviving species, PDT: red light 665 nm 30 J/cm^2
Protocol: as §2

osteoblasts [6] = test system: osteoblasts
Protocol: (§3) FIG. 7 presents two bar graphs on the growth of methylene blue (MB)-sensitized gingival fibroblasts and osteoblasts as determined by the MTT assay after their exposure to red light.
as §1
(§4) After photodynamic therapy (PDT), cell viability and mitochondrial activity were evaluated by the neutral red and MTT assay, respectively. The assessment of PDT-induced apoptosis was investigated by western blot analysis using cleaved poly(ADPribose) polymerase-specific antibodies. […] Osteoblasts (A) and fibroblasts (B) were treated with MB only (lane MB+), light only (lane L+), or light and MB (lane L+MB+). Control cultures were left untreated (lane −) or treated with 200 μmol/L staurosporine (lane +). Twenty-four hours after treatment, cultures were stopped and analyzed by western blot using cleaved PARP− and b-actin-specific antibodies.

[7] = test system: human gingival fibroblasts; details: 24 h, 50 μg/mL
Protocol: as §3, §1, §4

E. faecalis (ATCC 29212) [8] = test system: E. faecalis (ATCC 29212)
[9] = test system: Porphyromonas endodontalis (ATCC 35406); experiment: PDT on endodontic pathogens in planktonic phase: P. endodontalis; format: cell-based; details: methylene blue 25 μg/ml, 5 minutes; for Surviving species, PDT: red light 665 nm 30 J/cm^2
Protocol: as §2

[10] = test system: P. intermedia (ATCC 25611); experiment: PDT on endodontic pathogens in planktonic phase: P. intermedia; format: cell-based, Prevotella intermedia; details: methylene blue 25 μg/ml, 5 minutes; for Surviving species, PDT: red light 665 nm 30 J/cm^2
Protocol: as §2

E. faecalis (ATCC 29212) [11] = experiment: PDT on endodontic pathogens in planktonic phase: E. faecalis; format: cell-based, Enterococcus faecalis
Protocol: as §2

[12] = test system: human gingival fibroblasts; experiment: PDT-induced apoptosis, western blot for cleaved PARP, fibroblasts; format: cell-based; details: twenty-four hours after treatment
Protocol: as §4

osteoblasts [13] = experiment: PDT-induced apoptosis, western blot for cleaved PARP, osteoblasts; format: cell-based, human; details: twenty-four hours after treatment
Protocol: as §4

osteoblasts [14] = details: for reduction of viability, MB alone: human, 50 μg/mL
Protocol: as §1, §4

[15] = test system: Peptostreptocococcus micros (ATCC 33270); experiment: PDT on endodontic pathogens in planktonic phase: P. micros; format: cell-based; details: methylene blue 25 μg/ml, 5 minutes, mean ± standard error; for Surviving species, PDT: red light 665 nm 30 J/cm^2
Protocol: as §2

Structure (SMILES): CN(C)c1ccc2nc3ccc(=[N+](C)C)cc-3sc2c1 [methylene blue]
- effect of MB alone on viability [1]: no effect
- E. faecalis biofilm bacteria in root canals eliminated [2]: 97%
- reduction of colony-forming unit counts (CFU), PDT [3]: up to 80%
- mean CFU levels, combination of light and MB versus control or MB alone ([3]; FIG. 5): significantly lower than either control or MB alone
- Surviving species, only methylene blue ([4]; no light): 5.5 ± 0.4 percentage-of-controls
- Surviving species, PDT [4]: 0 percentage-of-controls
- Surviving species, PDT ([4]; listed as MB): fully eliminated
- Surviving species, only methylene blue ([5]; no light, mean ± standard error): 6.7 ± 0.1 percentage-of-controls
- Surviving species, PDT [5]: 0 percentage-of-controls
- Surviving species, PDT ([5]; listed as MB): fully eliminated
- reduction of mitochondrial activity, MB alone (osteoblasts [6]; human, 0 h, 50 μg/mL): 3.1%
- reduction of mitochondrial activity, L20+MB+ (osteoblasts [6]; human, 24 h, 50 μg/mL): approximately 34%
- reduction of mitochondrial activity, L40+MB+ (osteoblasts [6]; human, 24 h, 50 μg/mL): approximately 34%
- reduction of mitochondrial activity, MB alone (osteoblasts [6]; human, 24 h, 50 μg/mL): 13.5%
- reduction of mitochondrial activity, L40+MB+ [7]: 18.5%
- reduction of E. faecalis viability, PDT (E. faecalis (ATCC 29212) [8]; 6.25 μg/ml MB 5 minutes, light 665 nm 60 J/cm^2): 77.5%
- reduction of bacterial viability, MB alone (E. faecalis (ATCC 29212) [8]; 6.25 μg/ml MB, no light): 19.5%
- Surviving species, only methylene blue ([9]; no light): 0 percentage-of-controls
- Surviving species, PDT [9]: 0 percentage-of-controls
- Surviving species, PDT ([9]; listed as MB): fully eliminated
- Surviving species, only methylene blue ([10]; no light): 0 percentage-of-controls
- Surviving species, PDT [10]: 0 percentage-of-controls
- Surviving species, PDT ([10]; listed as MB): fully eliminated
- Surviving species, only methylene blue (E. faecalis (ATCC 29212) [11]; methylene blue 25 μg/ml, 5 minutes, no light, mean ± standard error): 94.5 ± 17.6 percentage-of-controls
- Surviving species, PDT (E. faecalis (ATCC 29212) [11]; methylene blue 25 μg/ml, 5 minutes, red light 665 nm 30 J/cm^2, mean ± standard error): 47 ± 12.1 percentage-of-controls
- killing (E. faecalis (ATCC 29212) [11]; planktonic, MB 25 μg/ml 5 minutes, light 665 nm 30 J/cm^2): 53%
- PARP cleavage, light and MB ([12]; lane L+MB+): Neither treatment resulted in PARP cleavage
- PARP cleavage, MB only ([12]; lane MB+): Neither treatment resulted in PARP cleavage
- PARP cleavage, light and MB (osteoblasts [13]; lane L+MB+): Neither treatment resulted in PARP cleavage
- PARP cleavage, MB only (osteoblasts [13]; lane MB+): Neither treatment resulted in PARP cleavage
- reduction of viability, MB alone (osteoblasts [14]; 0 h): 9.4%
- reduction of viability, MB alone (osteoblasts [14]; 24 h): 14.6%
- Surviving species, only methylene blue ([15]; no light): 21 ± 10.6 percentage-of-controls
- Surviving species, PDT [15]: 0 percentage-of-controls
- Surviving species, PDT ([15]; listed as MB): fully eliminated

Structure (SMILES): OCl [sodium hypochlorite]
- effect of sodium hypochlorite on osteoblasts, MTT assay (osteoblasts [6]): completely eliminated cells
- effect of sodium hypochlorite on osteoblasts, neutral red assay (osteoblasts [14]): completely eliminated cells

Reference: patent US20150030989A1, “Handheld Device for Delivering Photodynamic Therapy” (The Forsyth Institute, priority 2012, published 2015)
